# Data as given in US20250228794A1, “HOMOVANILLYL ALCOHOL (HVA), HVA ISOMER, METHODS OF MAKING COMPOSITIONS COMPRISING SUCH COMPOUNDS, AND METHODS USING SUCH COMPOUNDS” (SOCIETE DES PRODUITS NESTLE S.A., priority 2017, published 2025).
# Key:
# [1] = Urinary excretion of oleuropein metabolites after intake of olive leaf extract (pilot study, LC-MS)
# Description: Specifically, urine samples were enzymatically treated to hydrolyze the glucuronide and sulfate moieties and release the free forms which were quantified. After sample purification by liquid-liquid extraction, the chromatographic separation was operated on an Acquity™ UPLC® BEH C18 column (1.7 μm, 2.1×150 mm). The mobile phase consisted of 1 mmol/L ammonium acetate buffer and methanol under gradient conditions at a flow-rate of 0.25 mL/min. Hydroxytyrosol, homovanillyl alcohol, and the homovanillyl alcohol isomer 3-hydroxy-4-methoxyphenethanol (alternatively named 3-hydroxy-4-methoxyphenethyl alcohol) were identified and quantified by high performance liquid chromatography-electrospray ionization tandem mass spectrometry (HPLC-ESI-MS/MS) and by comparison with their corresponding chemically synthesized standards.
# The circulating concentration and kinetics of absorption of phenolic compounds and their metabolites in biological fluids (plasma or urine) depends on the matrix in which the compounds are ingested, the dose ingested, the time point of sample collection, the microflora of each individual, and the metabolism of each individual. To develop the most appropriate analytical approach for the measurement of OE absorption, a pilot study was conducted. Specifically, five subjects collected urine at baseline (before intake of the olive leaf extract) and between the intakes of two capsules of the olive leaf extract.
# The analytical method (sample preparation, deconjugation conditions, chromatographic detection and separation) was first developed by spiking chemical standards which were commercially available in commercial urine. The deconjugation conditions were determined by using the conjugates available, hydroxytyrosol sulfate and homovanillyl alcohol glucuronide. The commercially available chemical standards were 3,4-Dihydroxybenzoic acid; 3,4-Dihydroxyphenylacetic acid; Homovanillic acid; Homovanillyl alcohol; Homovanillyl alcohol glucuronide (vanillyl methanol glucuronide); Hydroxytyrosol; Hydroxytyrosol sulfate (hydroxytyrosol sulfate triethylammonium salt); and Vanillic acid.
# Briefly, the sample preparation consisted of a liquid-liquid extraction with ethyl acetate after a protein precipitation using acidified methanol.
# Regarding chromatographic analysis, Oleuropein metabolites were separated by reversed-phase ultra-performance liquid chromatography using a C18-column Acquity UPLC BEH C18 1.7 μm, 2.1 mm×150 mm, (Waters AG, Switzerland). The system consisted of a LC system Acquity™ UPLC® (Waters AG, Switzerland) coupled with a Qtrap 5500 Mass spectrometer detector equipped with an electrospray ionization source (ABSciex, Switzerland). Detection was performed in the negative operating mode at unit resolution.
# Specifically, a preliminary analysis of the urine samples collected after intake of the olive leaf extract was performed by electrospray ionization (ESI) in the negative ion mode, scanning for the different [M−H]^− ions at the theoretical m/z of the expected oleuropein metabolites and conjugates (Table 1).
# Relative amount of the metabolites identified was first evaluated to clarify if their excretion in urine was increasing after intake of the olive leaf extract. This evaluation was based on the measurement of the area under the corresponding chromatographic peak, which reflects the amount.
# [2] = system: inducible isoform of nitric oxide synthase (iNOS); assay: iNOS gene expression in chondrocytes (anti-inflammatory effect); type: cell-based; conditions: FIG. 17A
# Description: (§1) Chondrocytes in alginate beads were subjected to a two-hour polyphenols pre-treatment followed by a twenty-four hour IL1-α stimulation.
# (§2) Then the anti-inflammatory effect of oleuropein metabolites in chondrocytes was studied.
# Regarding FIG. 17A, the inducible isoform of nitric oxide synthase (iNOS) is an inflammation-related gene linked to NO production.
# Collagen-II = Collagen-II gene expression in chondrocytes in alginate beads, IL1-α stimulation; type: cell-based; conditions: two-hour pre-treatment, twenty-four hour IL1-α stimulation; polyphenols at 10 μM; FIG. 16A
# Description: as §1
# Regarding FIG. 16A, Collagen-II is an anabolism-related gene for major structural components of the extracellular matrix of joints.
# chondrocytes = assay: Effects of oleuropein metabolites on chondrocytes (overall); type: cell-based; conditions: synthetic form; comparison with hydroxytyrosol
# Description: As also set forth in detail later herein, several metabolites of oleuropein were tested for their effects on chondrocytes.
# as §1
# inflamed chondrocytes [3] = assay: Collagen in culture media of inflamed chondrocytes (catabolism); type: cell-based; conditions: FIG. 18B
# Description: as §1
# (§3) Next it was shown that oleuropein metabolites prevent collagen breakdown in inflamed chondrocytes (FIGS. 18A and 18B). In this regard, collagen in extra-cellular matrix corresponds to the collagen synthesized by the cells, i.e., anabolism. […] Collagen in culture media corresponds to the collagen degraded by cells and released in the media, i.e., […].
# cyclooxygenase-2 (COX-2) = assay: COX-2 gene expression in chondrocytes (anti-inflammatory effect); type: cell-based; conditions: FIG. 17B
# Description: as §1, §2
# Regarding FIG. 17B, cyclooxygenase-2 (COX-2) is another inflammation-related gene. It is linked to the Prostaglandin E2 (PGE2) pathway. OLP, EA and HVOH were efficient at 2 μM. OLP, OEA and HVOH were efficient at 10 μM.
# inflamed chondrocytes [4] = assay: Collagen in extra-cellular matrix of inflamed chondrocytes (anabolism); type: cell-based; conditions: FIG. 18A
# Description: as §1, §3
# [5] = urine after intake of olive leaf extract, LC-MS, MS2/MS3
molecule,measurement,setting,value
"O=C(O)c1ccc(O)c(O)c1 [3,4-dihydroxybenzoic acid]",change of amount in urine (area under the peak) after intake of olive leaf extract versus basal,[1]; in vivo,do not increase
same,detection and identification in urine,[1]; in vivo,detected in samples after intake of the olive leaf extract and in basal samples
"O=C(O)Cc1ccc(O)c(O)c1 [3,4-dihydroxyphenylacetic acid, 3,4-Dihydroxyphenylacetic acid]",change of amount in urine (area under the peak) after intake of olive leaf extract versus basal,[1]; in vivo,do not increase
same,detection and identification in urine,[1]; in vivo,detected in samples after intake of the olive leaf extract and in basal samples
COc1cc(CCO)ccc1O[C@@H]1O[C@H](C(=O)O)[C@@H](O)[C@H](O)[C@H]1O [Homovanillyl alcohol glucuronide],Number of forms confirmed in urine,[1]; in vivo,1
same,detection and identification in urine,[1]; in vivo,Presence & identity confirmed
"COc1cc(CC(=O)O)ccc1O [homovanillic acid, Homovanillic acid]",change of amount in urine (area under the peak) after intake of olive leaf extract versus basal,"[1]; FIG. 15, subjects 1 to 5",do not increase
"COc1ccc(CCO)cc1O [homovanillyl alcohol isomer, 3-hydroxy-4-methoxyphenethanol]",iNOS gene expression (protective effect),[2]; 2 μM,significant effect
same,iNOS gene expression (protective effect),[2]; 10 μM,significant effect
same,Collagen-II gene expression (protective effect),Collagen-II,significant effect
same,effects on chondrocytes,chondrocytes,more effective than hydroxytyrosol
same,"collagen in culture media (collagen degraded and released, catabolism)",inflamed chondrocytes [3],potent anti-breakdown effect (improved over control)
COc1cc(CCO)ccc1O [homovanillyl alcohol],COX-2 gene expression,cyclooxygenase-2 (COX-2); 2 μM,efficient
same,COX-2 gene expression,cyclooxygenase-2 (COX-2); 10 μM,efficient
same,Number of forms confirmed in urine,"[1]; human, in vivo",2
same,change of amount in urine (area under the peak) after intake of olive leaf extract versus basal,[1]; in vivo,specifically increase after intake of olive leaf extract
same,detection and identification in urine,[1]; in vivo,Presence & identity confirmed
same,form excreted in urine,[1]; in vivo,mainly as conjugated form
same,effects on chondrocytes,chondrocytes,more effective than hydroxytyrosol
same,"collagen in culture media (collagen degraded and released, catabolism)",inflamed chondrocytes [3],potent anti-breakdown effect (improved over control)
"OCCc1ccc(O)c(O)c1 [hydroxytyrosol, 3,4-dihydroxyphenylethanol, reference compound]",Number of forms confirmed in urine,"[1]; human, in vivo",1
same,average of the area under the chromatographic peak in urine,"[1]; human, in vivo",7.7×10^6
same,change of amount in urine (area under the peak) after intake of olive leaf extract versus basal,[1]; in vivo,specifically increase after intake of olive leaf extract
same,detection and identification in urine,[1]; in vivo,Presence & identity confirmed
same,form excreted in urine,[1]; in vivo,mainly as conjugated form
same,relative abundance excreted in urine,[1]; in vivo,more abundant than HVOH
"CC=C1C(O)OC=C(C(=O)OC)C1CC(=O)OCCc1ccc(O)c(O)c1 (stereo not drawn) [oleuropein aglycone, 3,4-dihydroxyphenylethanol-elenolic acid]",COX-2 gene expression,cyclooxygenase-2 (COX-2); 10 μM,efficient
same,Number of forms confirmed in urine,[1]; in vivo,1
same,average of the area under the chromatographic peak in urine,[1]; in vivo,2×10^6
same,"collagen in extra-cellular matrix (collagen synthesized by the cells, anabolism)",inflamed chondrocytes [4],protective effect
"COc1cc(C(=O)O)ccc1O [vanillic acid, Vanillic acid]",change of amount in urine (area under the peak) after intake of olive leaf extract versus basal,"[1]; human, in vivo","strongly increases in urine of subjects 2 and 4, but not as much in subjects 1, 3 and 5"
same,detection and identification in urine,[1]; [5],detected in samples after intake of the olive leaf extract and in basal samples
Elenolic acid [EA],COX-2 gene expression,cyclooxygenase-2 (COX-2); 2 μM,efficient
same,detection and identification in urine,[1]; in vivo,none of them could be confirmed as being EA
same,"collagen in culture media (collagen degraded and released, catabolism)",inflamed chondrocytes [3],potent anti-breakdown effect (improved over control)
Elenolic acid sulfate [EA-S],detection and identification in urine,[1]; in vivo,Neither ion of elenolic acid sulfate nor of elenolic acid glucuronide (EA-S or EA-G) could be detected
Hydroxytyrosol sulfate,Number of forms confirmed in urine,[1]; urine after intake of olive leaf extract,1
same,detection and identification in urine,[1]; [5],Presence & identity confirmed
Methylated oleuropein aglycone,detection and identification in urine,[1]; in vivo,Not detected
Oleuropein aglycone glucuronide,Number of forms confirmed in urine,[1]; in vivo,2
same,detection and identification in urine,[1]; in vivo,Presence & identity confirmed
Oleuropein aglycone sulfate,Number of forms confirmed in urine,[1]; in vivo,1
